Values belong to the molecule of their own block, whether it stands above or below them. Calls of active or inactive are those of the source. No cut-off for these calls is given here. Where a SMILES comes first, the peptide text is derived from it. Bridges are numbered along the chain shown (N, C = ends).
Columns and labels:
[1] = molecular target: Frizzled-2 (Homo sapiens) (UniProt Q14332); assay: Antagonist activity at Wnt3a-stimulated frizzled-2 (unknown origin) expressed in human HEK293superTOP flash cells incubated for 24 hrs by luciferase reporter gene assay; type: functional, cell-based; conditions: HEK293
[2] = molecular target: Frizzled-1 (Homo sapiens) (UniProt Q9UP38); assay: Antagonist activity at Wnt3a-stimulated frizzled-1 (unknown origin) expressed in human HEK293superTOP flash cells incubated for 24 hrs by luciferase reporter gene assay; type: functional, cell-based; conditions: HEK293
[3] = molecular target: Frizzled-2 (Homo sapiens) (UniProt Q14332); assay: Agonist activity at frizzled-2 (unknown origin) expressed in human HEK293superTOP flash cells by luciferase reporter gene assay; type: functional, cell-based; conditions: HEK293
[4] = molecular target: Frizzled-1 (Homo sapiens) (UniProt Q9UP38); assay: Agonist activity at frizzled-1 (unknown origin) expressed in human HEK293superTOP flash cells by luciferase reporter gene assay; type: functional, cell-based; conditions: HEK293
[5] = molecular target: T1, Frizzled-4 (Homo sapiens) (UniProt Q9ULV1); assay: Agonist activity at frizzled-4 (unknown origin) expressed in human HEK293superTOP flash cells by luciferase reporter gene assay; type: functional, cell-based; conditions: HEK293
T1 sequence (whole entry): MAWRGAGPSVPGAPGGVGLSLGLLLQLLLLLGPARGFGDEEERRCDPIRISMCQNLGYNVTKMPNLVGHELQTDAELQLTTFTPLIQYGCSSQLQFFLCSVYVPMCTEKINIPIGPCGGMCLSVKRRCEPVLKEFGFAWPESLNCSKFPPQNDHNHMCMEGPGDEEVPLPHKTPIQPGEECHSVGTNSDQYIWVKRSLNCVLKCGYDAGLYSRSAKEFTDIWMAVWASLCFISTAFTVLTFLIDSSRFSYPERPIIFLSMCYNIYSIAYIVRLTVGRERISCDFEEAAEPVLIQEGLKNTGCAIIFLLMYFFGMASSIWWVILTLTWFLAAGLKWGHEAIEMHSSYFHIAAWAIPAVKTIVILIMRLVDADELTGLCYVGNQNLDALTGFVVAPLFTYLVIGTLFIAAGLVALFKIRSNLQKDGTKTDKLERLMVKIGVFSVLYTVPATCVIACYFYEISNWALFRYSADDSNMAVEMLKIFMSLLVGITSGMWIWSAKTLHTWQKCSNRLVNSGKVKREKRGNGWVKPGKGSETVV

[6] = molecular target: Frizzled-5 (Homo sapiens) (UniProt Q13467); assay: Agonist activity at frizzled-5 (unknown origin) expressed in human HEK293superTOP flash cells by luciferase reporter gene assay; type: functional, cell-based; conditions: HEK293
[7] = molecular target: Frizzled-1 (Rattus norvegicus) (UniProt Q08463); assay: Agonist activity at rat frizzled-1 expressed in human HEK293superTOP flash cells by luciferase reporter gene assay; type: cell-based; conditions: HEK293
[8] = molecular target: Frizzled-2 (Rattus norvegicus) (UniProt Q08464); assay: Agonist activity at rat frizzled-2 expressed in human HEK293superTOP flash cells by luciferase reporter gene assay; type: cell-based; conditions: HEK293
[9] = molecular target: Frizzled-1 (Rattus norvegicus) (UniProt Q08463); assay: Antagonist activity at Wnt3a-stimulated rat frizzled-1 expressed in human HEK293superTOP flash cells at 10 nM incubated for 24 hrs by luciferase reporter gene assay relative to control; type: cell-based; conditions: HEK293, filed as antagonist
[10] = molecular target: Frizzled-2 (Rattus norvegicus) (UniProt Q08464); assay: Antagonist activity at Wnt3a-stimulated rat frizzled-2 expressed in human HEK293superTOP flash cells at 10 nM incubated for 24 hrs by luciferase reporter gene assay relative to control; type: cell-based; conditions: HEK293, filed as antagonist
[11] = molecular target: Frizzled-1 (Rattus norvegicus) (UniProt Q08463); assay: Antagonist activity at Wnt3a-stimulated rat frizzled-1 expressed in CHO cells incubated for 24 hrs by luciferase reporter gene assay relative to control; type: cell-based; conditions: filed as antagonist, concentration not given here
[12] = molecular target: Frizzled-2 (Rattus norvegicus) (UniProt Q08464); assay: Antagonist activity at Wnt3a-stimulated rat frizzled-2 expressed in CHO cells incubated for 24 hrs by luciferase reporter gene assay relative to control; type: cell-based; conditions: filed as antagonist, concentration not given here
[13] = molecular target: Frizzled-1 (Rattus norvegicus) (UniProt Q08463); assay: Antagonist activity at Wnt3a-stimulated rat frizzled-1 expressed in African green monkey COS7 cells incubated for 24 hrs by luciferase reporter gene assay relative to control; type: cell-based; conditions: filed as antagonist, concentration not given here
[14] = molecular target: Frizzled-2 (Rattus norvegicus) (UniProt Q08464); assay: Antagonist activity at Wnt3a-stimulated rat frizzled-2 expressed in African green monkey COS7 cells incubated for 24 hrs by luciferase reporter gene assay relative to control; type: cell-based; conditions: filed as antagonist, concentration not given here
[15] = molecular target: Frizzled-1 (Rattus norvegicus) (UniProt Q08463); assay: Agonist activity at rat frizzled-1 expressed in CHO cells by luciferase reporter gene assay; type: cell-based
[16] = molecular target: Frizzled-2 (Rattus norvegicus) (UniProt Q08464); assay: Agonist activity at rat frizzled-2 expressed in CHO cells by luciferase reporter gene assay; type: cell-based
[17] = molecular target: Frizzled-1 (Rattus norvegicus) (UniProt Q08463); assay: Agonist activity at rat frizzled-1 expressed in African green monkey COS7 cells by luciferase reporter gene assay; type: cell-based
[18] = molecular target: Frizzled-2 (Rattus norvegicus) (UniProt Q08464); assay: Agonist activity at rat frizzled-2 expressed in African green monkey COS7 cells by luciferase reporter gene assay; type: cell-based
Frizzled-1 = Frizzled-1 (Rattus norvegicus, UniProt Q08463); assay: Antagonist activity at Wnt3a-stimulated rat frizzled-1 expressed in human HEK293superTOP flash cells incubated for 24 hrs by luciferase reporter gene assay; type: cell-based, HEK293
Frizzled-2 = Frizzled-2 (Rattus norvegicus, UniProt Q08464); assay: Antagonist activity at Wnt3a-stimulated rat frizzled-2 expressed in human HEK293superTOP flash cells incubated for 24 hrs by luciferase reporter gene assay; type: cell-based, HEK293
[19] = molecular target: Frizzled-1 (Rattus norvegicus) (UniProt Q08463); assay: Antagonist activity at Wnt3a-stimulated rat frizzled-1 expressed in CHO cells up to 10 uM incubated for 24 hrs by luciferase reporter gene assay; type: cell-based; conditions: dose microM <=10, time 24.0 hrs
[20] = molecular target: Frizzled-2 (Rattus norvegicus) (UniProt Q08464); assay: Antagonist activity at Wnt3a-stimulated rat frizzled-2 expressed in […] cells up to 10 uM incubated for 24 hrs by luciferase reporter gene assay; type: cell-based; conditions: dose microM <=10, time 24.0 hrs
[21] = molecular target: Frizzled-1 (Rattus norvegicus) (UniProt Q08463); assay: Antagonist activity at Wnt3a-stimulated rat frizzled-1 expressed in African green monkey COS7 cells up to 10 uM incubated for 24 hrs by luciferase reporter gene assay; type: cell-based; conditions: dose microM <=10, time 24.0 hrs
[22] = molecular target: Frizzled-2 (Rattus norvegicus) (UniProt Q08464); assay: Antagonist activity at Wnt3a-stimulated rat frizzled-2 expressed in African green monkey COS7 cells up to 10 uM incubated for 24 hrs by luciferase reporter gene assay; type: cell-based; conditions: dose microM <=10, time 24.0 hrs
[23] = molecular target: Frizzled-1 (Homo sapiens) (UniProt Q9UP38); assay: Antagonist activity at Wnt3a-stimulaed frizzled-1 (unknown origin) expressed in human HEK293superTOP flash cells at 1 nM incubated for 24 hrs by luciferase reporter gene assay (reference value: 0%); type: functional, cell-based; conditions: HEK293, filed as antagonist
[24] = molecular target: Frizzled-2 (Homo sapiens) (UniProt Q14332); assay: Antagonist activity at Wnt3a-stimulaed frizzled-2 (unknown origin) expressed in human HEK293superTOP flash cells at 1 nM incubated for 24 hrs by luciferase reporter gene assay (reference value: 0%); type: functional, cell-based; conditions: HEK293, filed as antagonist
[25] = molecular target: Frizzled-2 (Homo sapiens) (UniProt Q14332); assay: Antagonist activity at Wnt3a-stimulated frizzled-2 (unknown origin) expressed in human HEK293superTOP flash cells at 10 nM incubated for 24 hrs by luciferase reporter gene assay; type: functional, cell-based; conditions: HEK293
[26] = molecular target: Frizzled-1 (Homo sapiens) (UniProt Q9UP38); assay: Antagonist activity at Wnt3a-stimulated frizzled-1 (unknown origin) expressed in human HEK293superTOP flash cells at 10 nM incubated for 24 hrs by luciferase reporter gene assay; type: functional, cell-based; conditions: HEK293

Sequence of Frizzled-2 (Homo sapiens) (Q14332 24-565 limits assumed): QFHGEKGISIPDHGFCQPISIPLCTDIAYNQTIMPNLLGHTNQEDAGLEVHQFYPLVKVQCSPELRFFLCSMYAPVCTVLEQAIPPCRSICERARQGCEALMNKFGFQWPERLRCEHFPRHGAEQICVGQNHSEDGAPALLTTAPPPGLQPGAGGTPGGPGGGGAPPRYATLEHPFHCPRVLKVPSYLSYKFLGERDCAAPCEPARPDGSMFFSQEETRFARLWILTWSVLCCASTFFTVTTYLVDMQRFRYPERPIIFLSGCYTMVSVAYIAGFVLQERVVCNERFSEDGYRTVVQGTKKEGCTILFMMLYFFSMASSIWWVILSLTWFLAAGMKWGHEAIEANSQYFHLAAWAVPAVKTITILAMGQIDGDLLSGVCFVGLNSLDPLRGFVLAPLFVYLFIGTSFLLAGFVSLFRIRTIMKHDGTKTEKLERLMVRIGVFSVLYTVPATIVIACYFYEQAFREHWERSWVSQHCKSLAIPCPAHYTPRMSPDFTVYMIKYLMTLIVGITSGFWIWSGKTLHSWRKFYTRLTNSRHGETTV
Sequence of Frizzled-2 (Rattus norvegicus) (Q08464 29-570 limits assumed): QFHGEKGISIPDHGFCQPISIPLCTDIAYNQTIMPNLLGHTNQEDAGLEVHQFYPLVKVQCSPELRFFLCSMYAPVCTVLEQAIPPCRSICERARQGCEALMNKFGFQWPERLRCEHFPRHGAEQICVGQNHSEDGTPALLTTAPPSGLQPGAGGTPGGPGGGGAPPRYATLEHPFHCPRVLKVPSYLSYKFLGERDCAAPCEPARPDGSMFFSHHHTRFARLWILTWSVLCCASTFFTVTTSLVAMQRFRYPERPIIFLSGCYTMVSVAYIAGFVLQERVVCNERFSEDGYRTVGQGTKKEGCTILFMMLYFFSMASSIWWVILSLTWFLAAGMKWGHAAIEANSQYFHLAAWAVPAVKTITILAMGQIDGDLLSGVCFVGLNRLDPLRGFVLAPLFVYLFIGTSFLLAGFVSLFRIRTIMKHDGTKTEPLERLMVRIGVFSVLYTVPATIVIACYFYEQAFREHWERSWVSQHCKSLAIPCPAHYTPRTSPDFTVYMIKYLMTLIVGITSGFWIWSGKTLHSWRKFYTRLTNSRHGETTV
Sequence of Frizzled-1 (Rattus norvegicus) (Q08463 whole entry): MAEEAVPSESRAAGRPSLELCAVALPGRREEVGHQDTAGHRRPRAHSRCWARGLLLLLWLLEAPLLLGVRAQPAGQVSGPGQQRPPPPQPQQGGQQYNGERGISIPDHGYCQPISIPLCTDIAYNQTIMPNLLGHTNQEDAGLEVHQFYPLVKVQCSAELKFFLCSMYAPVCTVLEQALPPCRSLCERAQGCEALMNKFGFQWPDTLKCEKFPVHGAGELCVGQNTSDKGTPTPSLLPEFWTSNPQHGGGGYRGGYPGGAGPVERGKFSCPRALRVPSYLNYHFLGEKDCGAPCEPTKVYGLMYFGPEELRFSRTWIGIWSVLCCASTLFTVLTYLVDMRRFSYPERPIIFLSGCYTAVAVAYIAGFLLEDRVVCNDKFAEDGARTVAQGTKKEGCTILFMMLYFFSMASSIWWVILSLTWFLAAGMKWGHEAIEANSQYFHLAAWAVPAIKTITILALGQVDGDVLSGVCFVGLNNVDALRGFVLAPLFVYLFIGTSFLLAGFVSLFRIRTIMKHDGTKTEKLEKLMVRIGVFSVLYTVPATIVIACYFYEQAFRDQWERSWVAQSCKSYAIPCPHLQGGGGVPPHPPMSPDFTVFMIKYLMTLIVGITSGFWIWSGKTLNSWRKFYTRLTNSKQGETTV
Sequence of Frizzled-1 (Homo sapiens) (Q9UP38 70-647 limits assumed): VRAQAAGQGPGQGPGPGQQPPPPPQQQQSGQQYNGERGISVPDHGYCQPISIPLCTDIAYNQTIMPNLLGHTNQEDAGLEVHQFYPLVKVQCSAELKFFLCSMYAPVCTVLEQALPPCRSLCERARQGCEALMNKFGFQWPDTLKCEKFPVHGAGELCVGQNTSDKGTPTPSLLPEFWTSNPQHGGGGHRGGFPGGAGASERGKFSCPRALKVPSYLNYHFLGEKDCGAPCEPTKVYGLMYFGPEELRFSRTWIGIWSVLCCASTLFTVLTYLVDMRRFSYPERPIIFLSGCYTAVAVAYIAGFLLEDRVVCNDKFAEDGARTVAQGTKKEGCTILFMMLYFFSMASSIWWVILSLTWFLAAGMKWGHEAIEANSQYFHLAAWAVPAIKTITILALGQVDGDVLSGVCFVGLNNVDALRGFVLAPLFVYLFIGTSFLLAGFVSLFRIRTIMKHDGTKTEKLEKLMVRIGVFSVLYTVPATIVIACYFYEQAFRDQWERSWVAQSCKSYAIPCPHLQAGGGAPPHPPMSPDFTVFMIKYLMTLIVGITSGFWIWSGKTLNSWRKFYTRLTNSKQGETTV
Sequence of Frizzled-2 (Q08464 whole entry): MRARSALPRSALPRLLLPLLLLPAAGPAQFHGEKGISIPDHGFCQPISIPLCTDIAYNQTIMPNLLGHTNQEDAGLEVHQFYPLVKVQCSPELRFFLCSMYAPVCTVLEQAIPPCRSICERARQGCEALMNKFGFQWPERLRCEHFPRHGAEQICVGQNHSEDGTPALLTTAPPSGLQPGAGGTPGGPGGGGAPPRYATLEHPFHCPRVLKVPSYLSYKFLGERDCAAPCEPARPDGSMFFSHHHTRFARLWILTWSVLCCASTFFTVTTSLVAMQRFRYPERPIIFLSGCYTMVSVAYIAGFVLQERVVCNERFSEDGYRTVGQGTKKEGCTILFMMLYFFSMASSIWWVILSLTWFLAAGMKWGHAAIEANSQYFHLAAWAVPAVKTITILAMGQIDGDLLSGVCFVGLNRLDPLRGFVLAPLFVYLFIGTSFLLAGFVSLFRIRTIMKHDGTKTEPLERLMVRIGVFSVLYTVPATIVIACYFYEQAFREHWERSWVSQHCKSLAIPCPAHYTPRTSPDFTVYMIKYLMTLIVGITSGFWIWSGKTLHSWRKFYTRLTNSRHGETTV
Sequence of Frizzled-1 (Q08463 whole entry): as the sequence (Q08463 whole entry) above
Sequence of Frizzled-5 (Homo sapiens) (Q13467 whole entry): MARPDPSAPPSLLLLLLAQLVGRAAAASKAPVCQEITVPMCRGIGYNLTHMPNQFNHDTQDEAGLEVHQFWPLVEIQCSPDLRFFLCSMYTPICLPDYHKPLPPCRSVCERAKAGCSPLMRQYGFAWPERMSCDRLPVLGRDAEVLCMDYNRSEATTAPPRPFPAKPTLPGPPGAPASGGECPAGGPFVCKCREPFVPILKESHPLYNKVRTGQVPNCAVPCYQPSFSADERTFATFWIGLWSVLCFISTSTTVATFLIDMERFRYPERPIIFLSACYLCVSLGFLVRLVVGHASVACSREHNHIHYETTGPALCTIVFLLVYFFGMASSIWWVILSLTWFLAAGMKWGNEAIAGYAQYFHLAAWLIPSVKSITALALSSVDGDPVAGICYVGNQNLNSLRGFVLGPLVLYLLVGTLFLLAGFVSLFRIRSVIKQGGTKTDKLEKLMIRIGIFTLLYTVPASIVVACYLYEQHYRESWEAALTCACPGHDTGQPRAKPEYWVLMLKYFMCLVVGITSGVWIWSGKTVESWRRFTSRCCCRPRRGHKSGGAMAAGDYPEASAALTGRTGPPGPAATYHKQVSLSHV

Molecule: CSCC[C@@H]1NC(=O)CNC(=O)[C@H](CCC(=O)O)NC(=O)[C@H](CO)NC(=O)[C@H]([C@@H](C)O)NC(=O)[C@H](CCCCN)NC(=O)[C@H](CC(N)=O)NC(=O)[C@@H](NC(C)=O)CSSC[C@@H](C(=O)N[C@@H](CCC(=O)O)C(=O)N[C@@H](CC(C)C)C(N)=O)NC(=O)CNC(=O)[C@H](CC(=O)O)NC1=O (Ac-CNKTSEGMDGCEL-NH2; disulfide 1-11)
Activity [5]: inactive | Activity [6]: inactive

Molecule: CC[C@H](C)[C@H](NC(=O)CNC(C)=O)C(=O)N[C@@H](CCCCN)C(=O)N[C@@H](CCC(=O)O)C(=O)N[C@@H](CS)C(=O)N[C@@H](CCC(N)=O)C(=O)N[C@@H](Cc1ccc(O)cc1)C(=O)N[C@@H](CCC(N)=O)C(=O)N[C@@H](Cc1ccccc1)C(=O)N[C@@H](CCCNC(=N)N)C(=O)N[C@@H](Cc1c[nH]cn1)C(=O)N[C@@H](CCCNC(=N)N)C(=O)N[C@@H](CCCNC(=N)N)C(=O)N[C@@H](Cc1c[nH]c2ccccc12)C(=O)N[C@@H](CC(N)=O)C(=O)N[C@@H](CS)C(=O)N[C@@H](CO)C(=O)N[C@H](C(=O)N[C@H](C(=O)N[C@@H](CC(=O)O)C(N)=O)C(C)C)[C@@H](C)O (Ac-GIKECQYQFRHRRWNCSTVD-NH2)
Activity [7]: inactive | Activity [8]: inactive | inhibition [9]: 100% | inhibition [10]: 100% | inhibition [11]: 100% | inhibition [12]: 100% | inhibition [13]: 100% | inhibition [14]: 100% | Activity [15]: inactive | Activity [16]: inactive | Activity [17]: inactive | Activity [18]: inactive

Molecule: CC(=O)NCC(=O)N[C@@H](CO)C(=O)N[C@@H](CS)C(=O)N[C@@H](CO)C(=O)N[C@@H](CC(C)C)C(=O)N[C@@H](CCCCN)C(=O)N[C@H](C(=O)N[C@@H](CS)C(=O)N[C@@H](Cc1c[nH]c2ccccc12)C(=O)N[C@@H](CC(C)C)C(=O)N[C@@H](CCC(N)=O)C(=O)N[C@@H](CC(C)C)C(=O)N[C@@H](C)C(=O)N[C@@H](CC(=O)O)C(N)=O)[C@@H](C)O (Ac-GSCSLKTCWLQLAD-NH2)
Activity [7]: inactive | Activity [8]: inactive | inhibition [9]: 100% | inhibition [10]: 100% | inhibition [11]: 100% | inhibition [12]: 100% | inhibition [13]: 100% | inhibition [14]: 100% | Activity [15]: inactive | Activity [16]: inactive | Activity [17]: inactive | Activity [18]: inactive | IC50 (Frizzled-1): 2.06 µM | IC50 (Frizzled-2): 2.11 µM

Molecule: Ac-DLVYFELSPDFCA-NH2
inhibition [1]: inactive | inhibition [2]: inactive | Activity [3]: inactive | Activity [4]: inactive

Molecule: Ac-GSKGTQGRACN-NH2
inhibition [1]: inactive | inhibition [2]: inactive | Activity [3]: inactive | Activity [4]: inactive

Molecule: Ac-MNRHNNEAGR-NH2
inhibition [1]: inactive | inhibition [2]: inactive | Activity [3]: inactive | Activity [4]: inactive

More lines, now with the values ahead:

inhibition [1]: inactive | inhibition [2]: inactive | Activity [3]: inactive | Activity [4]: inactive
Molecule: CC(=O)N[C@@H](CS)C(=O)N[C@@H](CCCCN)C(=O)N[C@@H](CS)C(=O)N[C@@H](Cc1cnc[nH]1)C(=O)NCC(=O)N[C@H](C(=O)N[C@@H](CO)C(=O)NCC(=O)N[C@@H](CO)C(=O)N[C@@H](CS)C(=O)N[C@H](C(=O)N[C@H](C(=O)N[C@@H](CCCCN)C(=O)N[C@H](C(=O)N[C@@H](CS)C(=O)N[C@@H](Cc1c[nH]c2ccccc12)C(N)=O)[C@@H](C)O)C(C)C)[C@@H](C)O)C(C)C (Ac-CKCHGVSGSCTVKTCW-NH2)

inhibition [1]: inactive | inhibition [2]: inactive | Activity [3]: inactive | Activity [4]: inactive
Molecule: CSCC[C@H](NC(=O)CNC(=O)[C@H](CO)NC(=O)[C@H](CCCCN)NC(=O)[C@H](CC(N)=O)NC(=O)[C@H](CS)NC(C)=O)C(=O)N[C@@H](CC(=O)O)C(=O)NCC(=O)N[C@@H](CS)C(=O)N[C@@H](CCC(=O)O)C(=O)N[C@@H](CC(C)C)C(N)=O (Ac-CNKSGMDGCEL-NH2)

inhibition [1]: inactive | inhibition [2]: inactive | Activity [3]: inactive | Activity [4]: inactive
Molecule: CC[C@H](C)[C@H](NC(C)=O)C(=O)N[C@@H](CCC(=O)O)C(=O)N[C@@H](CCC(=O)O)C(=O)N[C@@H](CS)C(=O)N[C@@H](CCC(N)=O)C(=O)N[C@@H](Cc1cnc[nH]1)C(=O)N[C@@H](CCC(N)=O)C(=O)N[C@@H](Cc1ccccc1)C(=O)N[C@@H](CCCNC(=N)N)C(=O)N[C@@H](CC(=O)O)C(=O)N[C@@H](CCCNC(=N)N)C(=O)N[C@@H](CCCNC(=N)N)C(=O)N[C@@H](Cc1c[nH]c2ccccc12)C(=O)N[C@@H](CC(N)=O)C(=O)N[C@@H](CS)C(N)=O (Ac-IEECQHQFRDRRWNC-NH2)

inhibition [19]: inactive | inhibition [20]: inactive | inhibition [21]: inactive | inhibition [22]: inactive | inhibition [23]: 67.2% | inhibition [24]: 84.9% | inhibition [25]: inactive | inhibition [26]: inactive
Molecule: Ac-CNKTSEGMDGAEL-NH2

inhibition [1]: inactive | inhibition [2]: inactive | Activity [3]: inactive | Activity [4]: inactive
Molecule: Ac-GDWEWGECSDNI-NH2
